Measurements published in PMC8752738, “A propolis-derived small molecule ameliorates metabolic syndrome in obese mice by targeting the CREB/CRTC2 transcriptional complex” (Nature Communications, 2022).
Where “and” joins values, the source holds several entries; their conditions need not be identical. Identical values can stand only once.

Experiments:
[1] = system: gluconeogenic and lipogenic gene mRNA in primary hepatocytes; assay: Quantitative PCR of gene expression in primary hepatocytes; type: cell-based, mouse; set-up: key to Lxra mRNA levels: mRNA level normalized to ribosomal L32 mRNA (internal control); key to Crtc2 mRNA levels / Srebf-1c mRNA levels / Srebf-2 mRNA levels / mRNA levels of G6pc / mRNA levels of CREB / mRNA levels of CRTC2: relative mRNA level, normalized to ribosomal L32; details: for Lxra mRNA levels, Mean / Srebf-2 mRNA levels, Mean / Srebf-1c mRNA levels, Mean / Crtc2 mRNA levels, Mean / Crtc2 mRNA levels / Lxra mRNA levels / Srebf-1c mRNA levels / Srebf-2 mRNA levels: Figure 7f; for Lxra mRNA levels, Mean / Srebf-2 mRNA levels, Mean / Srebf-1c mRNA levels, Mean / Crtc2 mRNA levels, Mean: mean of N=3; for Crtc2 mRNA levels / Lxra mRNA levels / Srebf-1c mRNA levels / Srebf-2 mRNA levels / mRNA levels of G6pc / mRNA levels of Pck1: single replicates; for mRNA of G6pc, mean / mRNA of Pck1, mean / mRNA levels of G6pc / mRNA levels of Pck1: Figure 9d; for mRNA of G6pc, mean / mRNA of Pck1, mean: group mean, N 6; for mRNA levels of CREB / mRNA levels of CRTC2 / mRNA levels of CREB, group mean (Mean 2) / mRNA levels of CRTC2, group mean (Mean 2): Supp. Fig.10 d; for mRNA levels of CREB / mRNA levels of CRTC2: individual replicates; for mRNA levels of CREB, group mean (Mean 2) / mRNA levels of CRTC2, group mean (Mean 2): n=6
Experimental: Total RNA from cells and tissues was extracted by Trizol (Invitrogen) and reverse-transcribed into cDNA using the prime script RT reagent kit with gDNA eraser (Takara). The mRNA levels were determined using the SYBR-green PCR kit (Takara) with ABIPRISM 7900HT Sequence detector (ABI) according to the manufacturer’s protocol. The quantitative qPCR primers used in this work are listed in Supplementary Table 1. Ribosomal L32 mRNA levels were used as an internal control.

[2] = system: G6pc promoter (G6p-Luc) in the liver; assay: Live imaging of hepatic G6p-Luc reporter; type: in vivo, mouse
From the text: Complete DNA sequences encoding human Creb and Crtc2 were cloned in the plasmids psc811 and psc804 to express BD-CREB and VP16AD-CRTC2 recombined proteins, respectively. GAL4-luciferase and RSV (Rous Sarcoma Virus)-Renilla were constructed using the pGL3 plasmid. pGEX5X-1 and pET28C were used to construct plasmids for GST- and HIS-tagged proteins expression, respectively. Adenoviruses encoding Ad-HA-Crtc2, Ad-GFP, and Ad-RSV-β-Gal (galactosidase) have been described previously. For infecting primary hepatocytes, 0.5–1 MOI adenovirus was employed. For live imaging experiments, 10^8 plaques forming units (pfu) Ad-G6P-Luc and 5 × 10^7 pfu Ad-RSV-β-gal adenovirus were delivered to mice by tail vein injection. Mice were then imaged on day 3–5 after adenovirus delivery.
After two days of tail intravenously delivery of Ad-G6p-Luc (10^8 pfu) and Ad-RSV-β-Gal (5 × 10^7 pfu) adenoviruses, mice were orally administered propolis or i.p. injected with APC one dose per day for another 3 days. After 16 h fasting, mice were anesthetized using gaseous isoflurane (Abbott), were i.p. injected with 100 mg/kg sterile firefly D-luciferin (Biosynth AG), and 15 min later, imaged by IVIS-100 Imaging System and analyzed with Living Image Software (Xenogen). Liver lysates were prepared to determine β-Gal activity. Luciferase activity detected for each mouse was normalized to the β-Gal expression in the liver.

Daily food intake = type: in vivo, mouse; details: for foodintake in DIO, mean / foodintake in DIO: DIO mice; for foodintake in DIO, mean: group mean, n=6; for foodintake in DIO: individual values; for foodintake of db/db: single animals; for foodintake of db/db, group mean: mean of APC group, N=5
PPARα, RXRα or LXRα = assay: PPRE-LUC reporter in HEK293T; type: cell-based; details: for relative PPRE-LUC: individual replicates, Supp. Fig.6 c; for relative PPRE-LUC, mean: N=3
Experimental: 1 c) Luciferase reporter activity of PPRE-LUC (PPAR response element driven luciferase reporter) in
2 HEK293T cell transfected with expression plasmids for Ppara, Rxra or Lxra with 8-h incubation of
3 APC (10 µM). One of three independent experiments presented here. Data are represented as
4 mean ± SEM. (n=3 per treatment). *, p < 0.05; **, p < 0.01; p values were determined by two-way

FGF21 = assay: Immunoblotting of plasma and liver FGF21; type: in vivo, mouse

## CC(C)=CCc1cc(C=CC(=O)O)cc(CC=C(C)C)c1O [APC, 3,5-diprenyl-4-hydroxycinnamic acid]
[1]; LV-CRTC2(S171A), Ctrl mean 1.393
  Lxra mRNA levels, Mean: 0.7111
[1]; LV-CRTC2(S171A), Ctrl mean 1.711
  Srebf-2 mRNA levels, Mean: 0.86
[1]; LV-CRTC2(S171A), Ctrl mean 1.819
  Srebf-1c mRNA levels, Mean: 1.166
[1]; LV-CRTC2(S171A), Ctrl mean 153.3
  Crtc2 mRNA levels, Mean: 159.3
[1]; LV-Crtc2-S171A
  Crtc2 mRNA levels: 189.700 and 115.000 and 173.200
  Lxra mRNA levels: 0.732 and 0.747 and 0.654
  Srebf-1c mRNA levels: 1.132 and 1.102 and 1.263
  Srebf-2 mRNA levels: 0.860 and 0.819 and 0.901
[1]; LV-GFP, Ctrl mean 0.9233
  Crtc2 mRNA levels, Mean: 1.106
[1]; LV-GFP, Ctrl mean 0.93
  Lxra mRNA levels, Mean: 0.8542
[1]; LV-GFP, Ctrl mean 0.9967
  Srebf-2 mRNA levels, Mean: 1.087
[1]; LV-GFP, Ctrl mean 1.053
  Srebf-1c mRNA levels, Mean: 0.9578
[1]; LV-Gfp
  Crtc2 mRNA levels: 1.240 and 0.976 and 1.101
  Lxra mRNA levels: 0.950 and 0.709 and 0.904
  Srebf-1c mRNA levels: 0.940 and 1.083 and 0.850
  Srebf-2 mRNA levels: 1.040 and 1.162 and 1.060
[1]; +Gluc
  mRNA of G6pc, mean: 73.01
  mRNA of Pck1, mean: 64.35
  mRNA levels of G6pc: 67.250 and 68.919 and 73.819 and 74.050 and 79.623 and 74.414
  mRNA levels of Pck1: 68.035 and 58.064 and 57.318 and 65.734 and 69.952 and 67.024
  mRNA levels of CREB: 0.685 and 0.852 and 0.9121 and 0.8012 and 0.8061 and 0.6905
  mRNA levels of CRTC2: 0.8083 and 0.8216 and 1.1926 and 0.9078 and 0.9957 and 1.2399
[1]; -Gluc
  mRNA of G6pc, mean: 0.2875
  mRNA of Pck1, mean: 0.3152
  mRNA levels of G6pc: 0.207 and 0.251 and 0.273 and 0.385 and 0.234 and 0.375
  mRNA levels of Pck1: 0.283 and 0.267 and 0.371 and 0.342 and 0.306 and 0.322
  mRNA levels of CREB: 0.9172 and 0.8231 and 0.8735 and 0.9451 and 0.728 and 1.0773
  mRNA levels of CRTC2: 1.0775 and 1.0279 and 1.0015 and 1.1906 and 1.0107 and 1.2086
[1]; +Gluc, Ctrl mean 0.8616
  mRNA levels of CREB, group mean (Mean 2): 0.7912
[1]; +Gluc, Ctrl mean 0.8879
  mRNA levels of CRTC2, group mean (Mean 2): 0.9943
[1]; -Gluc, Ctrl mean 0.9538
  mRNA levels of CREB, group mean (Mean 2): 0.894
[1]; -Gluc, Ctrl mean 1.009
  mRNA levels of CRTC2, group mean (Mean 2): 1.086
[1]; primary hepatocytes, APC 10 μM, 8-h
  mRNA levels of Lxrα, Srebf1 and Srebf2 with overexpressed Crtc2-S171A: effectively reduced
[1]; primary hepatocytes, APC 1, 5 or 50 μM
  mRNA accumulation of G6pc, Pck1 and Pgc-1α induced by glucagon: remarkably decreased
[2]; DIO mice, i.p. 20 mg/kg daily, 3 days
  G6P-Luc reporter activity in the livers: substantially decreased
[2]; Figure 8a right, group mean, n=5, VEH mean 0.996
  Relative G6P-LUC activity, folds (mean of column B): 0.402 folds
[2]; Figure 8a right, individual mice, vs VEH
  Relative G6P-LUC activity, folds: 0.6379 folds and 0.1281 folds and 0.5105 folds and 0.3399 folds and 0.3902 folds
Daily food intake; APC 10mg/kg
  foodintake in DIO, mean: 3.935 g/mouse/day
  foodintake in DIO: 3.44 g/mouse/day and 4.55 g/mouse/day and 3.83 g/mouse/day and 3.87 g/mouse/day and 4.39 g/mouse/day and 3.53 g/mouse/day
Daily food intake; APC 20mg/kg
  foodintake in DIO, mean: 3.517 g/mouse/day
  foodintake in DIO: 3.89 g/mouse/day and 3.58 g/mouse/day and 3.67 g/mouse/day and 3.06 g/mouse/day and 3.73 g/mouse/day and 3.17 g/mouse/day
Daily food intake; db/db mice, day 1
  foodintake of db/db: 6.30 g/per mouse/24h and 5.90 g/per mouse/24h and 7.80 g/per mouse/24h and 7.20 g/per mouse/24h and 6.43 g/per mouse/24h
Daily food intake; db/db mice, day 2
  foodintake of db/db, group mean: 6.34 g/per mouse/24h
  foodintake of db/db: 5.90 g/per mouse/24h and 6.90 g/per mouse/24h and 7.10 g/per mouse/24h and 7.50 g/per mouse/24h and 6.30 g/per mouse/24h
Daily food intake; db/db mice, day 3
  foodintake of db/db, group mean: 6.44 g/per mouse/24h
  foodintake of db/db: 6.10 g/per mouse/24h and 7.30 g/per mouse/24h and 5.80 g/per mouse/24h and 7.20 g/per mouse/24h and 6.20 g/per mouse/24h
Daily food intake; db/db mice, day 4
  foodintake of db/db, group mean: 6.5 g/per mouse/24h
  foodintake of db/db: 7.40 g/per mouse/24h and 6.30 g/per mouse/24h (2×) and 6.20 g/per mouse/24h and 5.90 g/per mouse/24h
Daily food intake; db/db mice, day 5
  foodintake of db/db, group mean: 6.68 g/per mouse/24h
  foodintake of db/db: 5.70 g/per mouse/24h and 7.20 g/per mouse/24h and 6.80 g/per mouse/24h and 7.90 g/per mouse/24h and 5.80 g/per mouse/24h
Daily food intake; db/db mice, day 6
  foodintake of db/db, group mean: 6.9 g/per mouse/24h
  foodintake of db/db: 8.00 g/per mouse/24h and 6.80 g/per mouse/24h and 6.10 g/per mouse/24h and 7.20 g/per mouse/24h and 6.40 g/per mouse/24h
Daily food intake; db/db mice, Mean of APC, two-way RM ANOVA
  foodintake of db/db, column mean over days 1-6: 6.737 g/per mouse/24h
Daily food intake; obese mice, 2 weeks of APC injection
  daily food intake: no significant effects
PPARα, RXRα or LXRα; HEK293T, APC 10 µM, 8-h
  activity of PPRE-luc induced by PPARα, RXRα or LXRα: did not alter
PPARα, RXRα or LXRα; overexpressed gene: LXRa
  relative PPRE-LUC, Mean Diff. APC - Ctrl: 0.2098
  relative PPRE-LUC: 3.9435 and 4.3354 and 5.6775
  relative PPRE-LUC, mean: 4.652
PPARα, RXRα or LXRα; overexpressed gene: PPARa
  relative PPRE-LUC, Mean Diff. APC - Ctrl: -2.353
  relative PPRE-LUC: 39.2490 and 43.4175 and 53.1308
  relative PPRE-LUC, mean: 45.27
PPARα, RXRα or LXRα; overexpressed gene: RXRa
  relative PPRE-LUC, Mean Diff. APC - Ctrl: 3.509
  relative PPRE-LUC: 53.5690 and 51.6829 and 53.7514
  relative PPRE-LUC, mean: 53
PPARα, RXRα or LXRα; overexpressed gene: pcDNA
  relative PPRE-LUC, Mean Diff. APC - Ctrl: -0.0701
  relative PPRE-LUC: 0.7140 and 0.9259 and 1.1498
  relative PPRE-LUC, mean: 0.9299
FGF21; Supp. Fig.10 f down, WT mice, n=3, VEH mean 1.024
  liver FGF21 in WT, group mean (Mean 2): 2.405
FGF21; Supp. Fig.10 f down, WT mice, oral, individual replicates, Veh about 1.02
  Bands density of FGF21 in the liver: 2.277 and 2.103 and 2.8341
FGF21; Supp. Fig.10 f up, WT mice, individual replicates, VEH about 1.08
  Bands density, plasma FGF21 in WT: 1.716 and 1.667 and 1.521
FGF21; Supp. Fig.10 f up, WT mice, n=3, VEH mean 1.077
  Bands density, plasma FGF21 in WT, group mean (Mean 2): 1.634
FGF21; wild-type control group, oral 20 mg/kg, 3 weeks
  plasma and liver FGF21: increased
